Columns and labels:
Type in all cases: in vivo
[1] = test system: Alopecurus myosuroides; experiment: Greenhouse pre-emergence weed control, blackgrass; details: for Weed Control (20 DAT) ALOMY: vs untreated check
From the text: (§1) Seeds of the monocotyledonous and dicotyledonous test plants are separately mixed with potting soil and planted on top of approximately one inch of soil in separate pint cups. After planting, the cups are subjected to the following treatments:
(§2) Technical TTP (treatment H) is applied as a dispersion in acetone using a single-nozzle overhead track pneumatic sprayer, while granular or powder formulations (treatments I-K) are applied by shaking the solid granules or powder directly and evenly onto the soil surface.
(§3) The treated cups are then placed on greenhouse benches, watered and cared for in accordance with conventional greenhouse procedures. Twenty days after treatment (DAT), the seedling plants are examined, and the % weed control as compared to untreated check is recorded (Table I).

[2] = test system: Lolium perenne; experiment: Greenhouse pre-emergence weed control, ryegrass; details: vs untreated check
From the text: as §1, §2, §3

[3] = test system: Setaria viridis; experiment: Greenhouse pre-emergence weed control, green foxtail; details: vs untreated check
From the text: as §1, §2, §3

[4] = test system: Galium aparine; experiment: Greenhouse pre-emergence weed control, Galium; details: for Weed Control (20 DAT) GALAP: vs untreated check
From the text: as §1, §2, §3

[5] = test system: Matricaria inodora vulgare; experiment: Greenhouse pre-emergence weed control, Matricaria; details: vs untreated check
From the text: as §1, §2, §3

[6] = test system: Papaver rhoeas; experiment: Greenhouse pre-emergence weed control, poppy; details: vs untreated check
From the text: as §1, §2, §3

[7] = test system: Veronica persica; experiment: Greenhouse pre-emergence weed control, Veronica; details: vs untreated check
From the text: as §1, §2, §3

[8] = test system: Hordeum vulgare (variety Mammut); experiment: Crop phytotoxicity, winter barley (variety Mammut); details: assessed visually
From the text: as §1, §2
The treated cups are then placed on greenhouse benches, watered and cared for in accordance with conventional greenhouse procedures. […]

[9] = test system: Triticum aestivum (variety Kanzler); experiment: Crop phytotoxicity, winter wheat (variety Kanzler); details: assessed visually
From the text: as §1, §2, §3

`FC(F)(F)c1ccc(-c2nccc(Oc3cccc(C(F)(F)F)c3)n2)cc1` [H, 4-(3-trifluoromethylphenoxy)-2-(4-trifluoromethylphenyl)-pyrimidine] was tested, and the “Weed Control (20 DAT) ALOMY” value ([1]; 0.060 kg/ha) was 22.5%, the “Weed Control (20 DAT) ALOMY” value ([1]; 0.120 kg/ha) was 77.5% and the “Weed Control (20 DAT) ALOMY” value ([1]; 0.240 kg/ha) was 98.5%. For the same compound, the “Weed Control (20 DAT) ALOMY” value ([1]; 0.480 kg/ha) was 99.0%, the “Rate required to control Alopecurus” value ([1]; greenhouse) was 240 g/ha and the “Weed Control (20 DAT) LOLPE” value ([2]; 0.060 kg/ha) was 91.5%. The “Weed Control (20 DAT) LOLPE” value ([2]; 0.120 kg/ha) was 98.5%, the “Weed Control (20 DAT) LOLPE” value ([2]; 0.240 kg/ha) was 99.0% and the “Weed Control (20 DAT) LOLPE” value ([2]; 0.480 kg/ha) was 99.0%. The “Weed Control (20 DAT) SETVI” value ([3]; 0.060 kg/ha) was 96.5%, the “Weed Control (20 DAT) SETVI” value ([3]; 0.120 kg/ha) was 100.0% and the “Weed Control (20 DAT) SETVI” value ([3]; 0.240 kg/ha) was 100.0%. The “Weed Control (20 DAT) SETVI” value ([3]; 0.480 kg/ha) was 100.0%, the “Weed Control (20 DAT) GALAP” value ([4]; 0.060 kg/ha) was 67.5% and the “Weed Control (20 DAT) GALAP” value ([4]; 0.120 kg/ha) was 72.5%. For the same compound, the “Weed Control (20 DAT) GALAP” value ([4]; 0.240 kg/ha) was 98.0%, the “Weed Control (20 DAT) GALAP” value ([4]; 0.480 kg/ha) was 98.0% and the “Rate required to control Galium” value ([4]; greenhouse) was 240 g/ha. For the same compound, the “Weed Control (20 DAT) MATIN” value ([5]; 0.060 kg/ha) was 98.5%, the “Weed Control (20 DAT) MATIN” value ([5]; 0.120 kg/ha) was 99.0% and the “Weed Control (20 DAT) MATIN” value ([5]; 0.240 kg/ha) was 99.0%. For the same compound, the “Weed Control (20 DAT) MATIN” value ([5]; 0.480 kg/ha) was 100.0%, the “Weed Control (20 DAT) PAPRH” value ([6]; 0.060 kg/ha) was 99.5% and the “Weed Control (20 DAT) PAPRH” value ([6]; 0.120 kg/ha) was 99.5%. The “Weed Control (20 DAT) PAPRH” value ([6]; 0.240 kg/ha) was 100.0%, the “Weed Control (20 DAT) PAPRH” value ([6]; 0.480 kg/ha) was 100.0% and the “Weed Control (20 DAT) VERPE” value ([7]; 0.060 kg/ha) was 99.5%. For the same compound, the “Weed Control (20 DAT) VERPE” value ([7]; 0.120 kg/ha) was 100.0%, the “Weed Control (20 DAT) VERPE” value ([7]; 0.240 kg/ha) was 100.0% and the “Weed Control (20 DAT) VERPE” value ([7]; 0.480 kg/ha) was 100.0%. For the same compound, the “Crop Phytotoxicity 11 DAT HORVWM” value ([8]; 0.060 kg/ha) was 20.0, the “Crop Phytotoxicity 20 DAT HORVWM” value ([8]; 0.060 kg/ha) was 15.0 and the “Crop Phytotoxicity 11 DAT HORVWM” value ([8]; 0.120 kg/ha) was 40.0. For the same compound, the “Crop Phytotoxicity 20 DAT HORVWM” value ([8]; 0.120 kg/ha) was 25.0, the “Crop Phytotoxicity 11 DAT HORVWM” value ([8]; 0.240 kg/ha) was 42.5 and the “Crop Phytotoxicity 20 DAT HORVWM” value ([8]; 0.240 kg/ha) was 40.0. The “Crop Phytotoxicity 11 DAT HORVWM” value ([8]; 0.480 kg/ha) was 47.5, the “Crop Phytotoxicity 20 DAT HORVWM” value ([8]; 0.480 kg/ha) was 45.0 and the “Crop Phytotoxicity 11 DAT TRZAWK” value ([9]; 0.060 kg/ha) was 1.0. The “Crop Phytotoxicity 20 DAT TRZAWK” value ([9]; 0.060 kg/ha) was 0.5, the “Crop Phytotoxicity 11 DAT TRZAWK” value ([9]; 0.120 kg/ha) was 2.5 and the “Crop Phytotoxicity 20 DAT TRZAWK” value ([9]; 0.120 kg/ha) was 1.0. The “Crop Phytotoxicity 11 DAT TRZAWK” value ([9]; 0.240 kg/ha) was 6.5, the “Crop Phytotoxicity 20 DAT TRZAWK” value ([9]; 0.240 kg/ha) was 4.5 and the “Crop Phytotoxicity 11 DAT TRZAWK” value ([9]; 0.480 kg/ha) was 14.0. The “Crop Phytotoxicity 20 DAT TRZAWK” value ([9]; 0.480 kg/ha) was 10.0.

Source: US6894003B2, “Enhancement of the activity of carotenoid biosynthesis inhibitor herbicides” (BASF Aktiengesellschaft, priority 2000, dated 2005)
